Measurements: patent US20250248998A1, “LRRK2 Inhibitors” (Brenig Therapeutics, Inc., priority 2022, published 2025)

How the values were obtained:
[1] = A549 cytotoxicity assay (CellTiter-Glo); format: cell-based; conditions: human, A549 cells, 3 days of incubation
Experimental: Example D. A549 Cytotoxicity Assay Used to Determine Safety of the LRRK2 Inhibitors
A549 (ATCC, CCL-185) cells were seeded at a density of 4000 cells per well in a 384-well clear bottom plate (Greiner Cat #781090) in 45 μL total volume of the complete cell culture medium DMEM (PanEco, Cat #C420, Russia) with 10% FBS (HyClone Cat #SV30160.03). The cells were allowed to adhere overnight at 37° C., 5% CO2. The 500× compounds solutions in DMSO (Sigma Cat #D2650) were prepared in the compounds plate (Diamond Well Plate, Axigen, Cat #P-384-120SQ-C-S) and DMSO as a vehicle control was included. The 1 μL aliquot of 500× compounds (Compounds plate) was added to the 49 μL culture medium in the Dilution plate (Diamond Well Plate, Axigen, Cat #P-384-120SQ-C-S), mixed and then the 5 μL aliquots of the 10× compounds solutions was transferred to cells followed by centrifugation at 100 g for 1 min. Final DMSO concentration was 0.2%. After 3 days of incubation the 10 μL per well of CellTiter-Glo (Promega, CAT #G7572) was added to the cells, plate was centrifuged at 100 g for 1 min. The luminescence signal was detected with CLARIOstar Plus (BMG LABTECH) microplate reader.

[2] = target: T1, LRRK2 WT (Homo sapiens, UniProt Q5S007); assay: Enzymatic activity inhibition against LRRK2 WT (ADP-Glo kinase assay, LRRKtide substrate); format: biochemical; parameters: purchased SignalChem Biotech, Inc. L10-11G-10; conditions: recombinant LRRK2 WT 36 nM, ATP, 1 h at rt, average Ki
Experimental: Example B. Primary Assays Used to Determine Potency of the LRRK2 Inhibition
Assay for Determining Enzymatic Activity Inhibition Against LRRK2 WT.
Compound activity was determined using recombinant LRRK2 WT protein (SignalChem Biotech, Inc., Cat #L10-11G-10) and LRRKtide substrate (SignalChem Biotech, Inc., Cat #L10-58) in an in vitro enzymatic reaction. The enzymatic reaction was carried out in assay buffer (40 mM TRIS-HCl pH 7.4, 20 mM MgCl2, 0.05 mM DTT, 0.1 mg/mL BSA). The compounds were dispensed into a 384 well Diamond Well Plate (Axigen, Cat #P-384-120SQ-C-S) using the Biomek FX liquid handling system at 80× solutions of compounds in DMSO. The 2× Protein-Substrate mix (final concentration 36 nM of LRRK2 WT and 0.8 μg/μL of LRRKtide) was prepared in the 1× Assay buffer and 4 μL of mixture per well was added into the 384-well white Reaction plate with NBS (Corning, Cat #CLS4513). The 4 μL of LRRKtide substrate w/o LRRK2 WT in the 1× buffer was used for a negative control. Plates were centrifuged for 1 min at 200 g. Next the compounds were added to Reaction plate using Biomek station via following steps: 1 μL of 80× compounds (in DMSO) were mixed thoroughly with 39 μL of 2×10 μM ATP in Assay Buffer, then 4 μL of this mixture was added to Reaction plate with 4 μL of Protein-Substrate mix. Plates were centrifuged for 1 min at 200 g and incubated for 1 hour at rt. Then, 4 μL per well of ADP-Glo reagent (Promega, ADP-Glo™ Kinase Assay, Cat #V9102) was added. Plates were incubated for 30 minutes at rt. Then, 8 μL per well of Kinase detection reagent (Promega, ADP-Glo™ Kinase Assay, Cat #V9102) was added and the luminescence signal was measured with a microplate reader. The % inhibition was then used to calculate the Ki values. The average Ki values are shown in Table B, wherein “A” corresponds to Ki<10.0 nM, “B” corresponds to 10.0 nM K Ki<20.0 nM, “C” 20.0 nM K Ki<50.0 nM, “D” corresponds to 50.0 nM K Ki<100.0 nM and “E” corresponds to Ki>100.0 nM.
Target sequence in this assay (Q5S007 970-2527 limits assumed): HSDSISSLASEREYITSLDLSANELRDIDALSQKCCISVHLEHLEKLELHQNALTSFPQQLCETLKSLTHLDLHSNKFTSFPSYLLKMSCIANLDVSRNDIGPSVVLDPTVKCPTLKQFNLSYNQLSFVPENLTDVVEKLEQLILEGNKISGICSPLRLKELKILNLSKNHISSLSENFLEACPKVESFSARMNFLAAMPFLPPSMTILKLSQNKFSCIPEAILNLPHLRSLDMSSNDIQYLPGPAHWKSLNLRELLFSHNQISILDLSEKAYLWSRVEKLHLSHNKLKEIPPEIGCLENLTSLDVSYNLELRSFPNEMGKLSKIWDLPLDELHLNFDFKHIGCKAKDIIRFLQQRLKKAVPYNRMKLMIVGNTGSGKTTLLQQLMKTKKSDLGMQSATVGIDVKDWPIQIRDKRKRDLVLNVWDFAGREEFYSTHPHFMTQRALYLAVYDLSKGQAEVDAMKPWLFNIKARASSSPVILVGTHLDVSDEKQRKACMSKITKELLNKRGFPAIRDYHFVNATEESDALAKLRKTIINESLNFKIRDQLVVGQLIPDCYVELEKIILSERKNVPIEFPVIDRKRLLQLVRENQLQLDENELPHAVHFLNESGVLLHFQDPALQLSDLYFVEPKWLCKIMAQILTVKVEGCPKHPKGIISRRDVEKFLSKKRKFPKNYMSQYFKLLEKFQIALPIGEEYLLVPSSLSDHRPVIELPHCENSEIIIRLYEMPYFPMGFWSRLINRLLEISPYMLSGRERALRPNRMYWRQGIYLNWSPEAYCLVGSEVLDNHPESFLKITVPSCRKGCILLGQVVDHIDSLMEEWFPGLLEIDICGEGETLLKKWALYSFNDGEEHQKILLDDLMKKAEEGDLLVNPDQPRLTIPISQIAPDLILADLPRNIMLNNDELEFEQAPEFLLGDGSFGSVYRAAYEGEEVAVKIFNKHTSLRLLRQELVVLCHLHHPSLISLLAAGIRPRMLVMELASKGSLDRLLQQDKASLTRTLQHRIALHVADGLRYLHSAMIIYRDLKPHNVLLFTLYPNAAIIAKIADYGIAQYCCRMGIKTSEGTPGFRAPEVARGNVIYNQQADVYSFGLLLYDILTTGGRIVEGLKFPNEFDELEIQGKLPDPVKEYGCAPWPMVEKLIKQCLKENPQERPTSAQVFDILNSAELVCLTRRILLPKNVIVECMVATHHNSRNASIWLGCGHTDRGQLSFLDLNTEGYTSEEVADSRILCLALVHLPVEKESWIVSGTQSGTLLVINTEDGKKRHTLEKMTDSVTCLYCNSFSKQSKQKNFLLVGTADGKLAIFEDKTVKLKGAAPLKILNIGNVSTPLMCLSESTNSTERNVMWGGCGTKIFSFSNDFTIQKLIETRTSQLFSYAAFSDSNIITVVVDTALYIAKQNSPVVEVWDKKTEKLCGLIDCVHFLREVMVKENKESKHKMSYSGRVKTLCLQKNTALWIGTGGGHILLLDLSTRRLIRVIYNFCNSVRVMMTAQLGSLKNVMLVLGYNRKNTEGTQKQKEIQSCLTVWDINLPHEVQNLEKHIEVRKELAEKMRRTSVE

[3] = target: T2, LRRK2[G2019S] (Homo sapiens, UniProt Q5S007, G2019S); assay: Enzymatic activity inhibition against LRRK2[G2019S] (ADP-Glo kinase assay, LRRKtide substrate); format: biochemical; parameters: purchased SignalChem Biotech, Inc. L10-12GG-10; conditions: recombinant LRRK2[G2019S] 36 nM, ATP, 1 h at rt, average Ki
Experimental: Example A. Primary Assays Used to Determine Potency of the LRRK2 Inhibition
Assay for Determining Enzymatic Activity Inhibition Against LRRK2[G2019S].
Compound activity was determined using recombinant LRRK2[G2019S] protein (SignalChem Biotech, Inc., Cat #L10-12GG-10) and LRRKtide substrate (SignalChem Biotech, Inc., Cat #L10-58) in an in vitro enzymatic reaction. The enzymatic reaction was carried out in assay buffer (40 mM TRIS-HCl pH 7.4, 20 mM MgCl2, 0.05 mM DTT, 0.1 mg/mL BSA). The compounds were dispensed into a 384 well Diamond Well Plate (Axigen, Cat #P-384-120SQ-C-S) using the Biomek FX liquid handling system at the 80× solutions of compounds in DMSO. The 2× Protein-Substrate mix (final concentration 36 nM of LRRK2[G2019S] and 0.8 μg/μL of LRRKtide) was prepared in 1× Assay buffer and 4 μL of mixture per well was added into the 384-well white Reaction plate with NBS (Corning, Cat #CLS4513). The 4 μL of LRRKtide substrate w/o LRRK2[G2019S] in the 1× buffer was used for a negative control. Plates were centrifuged for 1 min at 200 g. Next the compounds were added to the reaction plate using Biomek station via following steps: 1 μL of 80× compounds (in DMSO) were mixed thoroughly with 39 μL of 2×10 μM ATP in Assay Buffer, then 4 μL of this mixture was added to Reaction plate with 4 μL of Protein-Substrate mix. Plates were centrifuged for 1 min at 200 g and incubated for 1 h at rt. Then, 4 μL per well of ADP-Glo reagent (Promega, ADP-Glo™ Kinase Assay, Cat #V9102) was added. Plates were incubated for 30 min at rt. Then, 8 μL per well of Kinase detection reagent (Promega, ADP-Glo™ Kinase Assay, Cat #V9102) was added and the luminescence signal was measured with a microplate reader. The luminescence signal was detected with CLARIOstar Plus (BMG LABTECH) microplate reader. The % inhibition was then used to calculate the Ki values. The average Ki values are shown in Table A, wherein “A” corresponds to Ki<5.0 nM, “B” corresponds to 5.0 nM≤Ki<10.0 nM, “C” 10.0 nM≤Ki<50.0 nM, “D” corresponds to 50.0 nM≤Ki<100.0 nM and “E” corresponds to Ki>100.0 nM.
Target sequence in this assay (Q5S007 970-2527 G2019S limits assumed): as the sequence (Q5S007 970-2527 limits assumed) above, with G1050S counted along it

[4] = target: T1, LRRK2 WT; assay: Cell-based NanoBRET target engagement assay in HEK293 cells transfected with LRRK2 WT-NanoLuc fusion vector; parameters: expressed in transfected cells; host or cells: HEK293 (ATCC); conditions: compound treatment 1 h
Experimental: (§1) Example C. Cell-Based NanoBRET Target Engagement Assay in 11EK293 Cells Transiently Transfected with LRRK2 WT- or LRRK2 (G2019S)-Nano Luc Fusion Vector
(§2) H1EK293 (ATCC) cells were transfected with […] LRRK2 WT or LRRK2 (G2019S) and 9 μg transfection carrier DNA. The transfected cells were treated with the compounds (starting at 1 μM, 10-dose with 3-fold dilution) and reference compounds CEP-701 or Staurosporine (starting at 1 μM, 10-dose with 3-fold dilution); compound treatment time: 1 h. LRRK2 WT and LRRK2 (G2019S) target engagement was measured by NanoBRET assay. Curve fits were performed only when % NanoBret signal at the highest concentration of compounds was less than […]. Assay format: 384-well format, 4000 cells/well. The IC50 values are shown in Table C, wherein “A” corresponds to IC50≤50.0 nM, “B” corresponds to 50.0 nM≤IC50<100.0 nM, “C” corresponds to 100.0 nM≤IC50.
Target sequence in this assay (Q5S007 whole entry): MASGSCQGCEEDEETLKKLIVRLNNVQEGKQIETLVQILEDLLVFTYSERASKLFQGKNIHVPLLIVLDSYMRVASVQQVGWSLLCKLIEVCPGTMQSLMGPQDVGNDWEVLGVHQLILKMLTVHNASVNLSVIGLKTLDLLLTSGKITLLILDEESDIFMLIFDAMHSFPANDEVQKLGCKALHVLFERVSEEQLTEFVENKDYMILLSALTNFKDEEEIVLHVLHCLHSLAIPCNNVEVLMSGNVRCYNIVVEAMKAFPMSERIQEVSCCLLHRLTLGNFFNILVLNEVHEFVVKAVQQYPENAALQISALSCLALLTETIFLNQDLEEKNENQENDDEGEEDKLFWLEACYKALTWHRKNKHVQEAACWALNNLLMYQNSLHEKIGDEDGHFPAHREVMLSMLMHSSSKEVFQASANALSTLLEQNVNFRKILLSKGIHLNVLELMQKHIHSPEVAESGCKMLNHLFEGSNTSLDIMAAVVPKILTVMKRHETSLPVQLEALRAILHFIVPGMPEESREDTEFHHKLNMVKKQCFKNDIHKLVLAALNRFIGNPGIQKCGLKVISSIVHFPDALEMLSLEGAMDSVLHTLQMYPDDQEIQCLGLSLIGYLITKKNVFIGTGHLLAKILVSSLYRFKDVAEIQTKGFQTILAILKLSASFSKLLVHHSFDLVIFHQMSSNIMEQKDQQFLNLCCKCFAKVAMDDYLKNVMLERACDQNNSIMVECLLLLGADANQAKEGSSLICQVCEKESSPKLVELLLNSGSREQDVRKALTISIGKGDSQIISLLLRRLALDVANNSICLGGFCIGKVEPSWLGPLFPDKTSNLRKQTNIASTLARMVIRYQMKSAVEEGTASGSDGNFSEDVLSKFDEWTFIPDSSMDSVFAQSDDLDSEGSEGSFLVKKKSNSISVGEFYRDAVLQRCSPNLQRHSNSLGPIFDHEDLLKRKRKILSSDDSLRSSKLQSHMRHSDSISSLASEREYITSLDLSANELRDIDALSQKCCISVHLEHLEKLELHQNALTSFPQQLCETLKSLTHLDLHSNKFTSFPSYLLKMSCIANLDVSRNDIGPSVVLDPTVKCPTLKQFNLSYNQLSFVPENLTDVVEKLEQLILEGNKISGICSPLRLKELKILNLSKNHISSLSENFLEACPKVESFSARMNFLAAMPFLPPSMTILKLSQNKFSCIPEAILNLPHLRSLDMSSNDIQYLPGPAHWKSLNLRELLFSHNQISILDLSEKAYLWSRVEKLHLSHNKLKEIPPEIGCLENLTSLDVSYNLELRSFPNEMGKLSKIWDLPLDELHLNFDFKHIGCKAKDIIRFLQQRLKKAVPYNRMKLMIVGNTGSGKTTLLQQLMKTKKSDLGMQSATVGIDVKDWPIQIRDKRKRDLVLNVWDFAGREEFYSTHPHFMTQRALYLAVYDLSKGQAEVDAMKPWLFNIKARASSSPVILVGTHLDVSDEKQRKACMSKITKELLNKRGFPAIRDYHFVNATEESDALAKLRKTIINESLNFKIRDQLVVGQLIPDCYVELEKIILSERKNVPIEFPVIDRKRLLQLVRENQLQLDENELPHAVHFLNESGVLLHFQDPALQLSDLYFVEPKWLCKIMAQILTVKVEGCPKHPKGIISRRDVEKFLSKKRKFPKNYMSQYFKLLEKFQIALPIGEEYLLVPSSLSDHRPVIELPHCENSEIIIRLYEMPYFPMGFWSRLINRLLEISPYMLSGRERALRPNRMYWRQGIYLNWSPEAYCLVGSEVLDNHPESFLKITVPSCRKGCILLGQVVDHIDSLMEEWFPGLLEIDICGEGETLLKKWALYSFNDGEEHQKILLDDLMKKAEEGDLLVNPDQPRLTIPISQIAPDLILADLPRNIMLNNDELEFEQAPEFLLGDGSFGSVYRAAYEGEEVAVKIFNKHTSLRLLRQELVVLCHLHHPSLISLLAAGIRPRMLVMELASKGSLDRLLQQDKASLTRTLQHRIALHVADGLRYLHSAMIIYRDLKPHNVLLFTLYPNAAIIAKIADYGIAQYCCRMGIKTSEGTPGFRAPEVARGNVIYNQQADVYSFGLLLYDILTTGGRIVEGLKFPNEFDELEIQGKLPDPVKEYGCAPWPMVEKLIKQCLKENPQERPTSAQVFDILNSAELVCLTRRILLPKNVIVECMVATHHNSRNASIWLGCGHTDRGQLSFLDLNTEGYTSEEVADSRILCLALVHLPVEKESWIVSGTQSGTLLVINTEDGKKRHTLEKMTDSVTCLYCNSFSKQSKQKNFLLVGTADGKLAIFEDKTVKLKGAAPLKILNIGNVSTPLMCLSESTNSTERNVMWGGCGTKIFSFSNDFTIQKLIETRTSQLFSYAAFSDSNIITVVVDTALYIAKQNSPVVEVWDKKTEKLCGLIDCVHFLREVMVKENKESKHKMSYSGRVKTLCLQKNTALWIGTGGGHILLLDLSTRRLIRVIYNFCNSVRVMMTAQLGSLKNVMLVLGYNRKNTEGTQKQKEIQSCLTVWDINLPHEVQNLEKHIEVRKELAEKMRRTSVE

[5] = target: T2, LRRK2[G2019S]; assay: Cell-based NanoBRET target engagement assay in HEK293 cells transfected with LRRK2 (G2019S)-NanoLuc fusion vector; parameters: expressed in transfected cells; host or cells: HEK293 (ATCC); conditions: compound treatment 1 h
Experimental: as §1, §2
Target sequence in this assay (Q5S007 whole entry G2019S): as the sequence (Q5S007 whole entry) above, with G2019S counted along it

| Compound | Ki [2] | Ki [3] | IC50 [4] | IC50 [5] | CC50 at 3 days [1] |
| --- | --- | --- | --- | --- | --- |
| C[C@@H]1CN(c2cc(-c3n[nH]c4ccc(OC5(C)CC5)cc34)nn(C)c2=O)C[C@H](C)O1 [Compound 50, 4-[(2S,6R)-2,6-dimethylmorpholin-4-yl]-2-methyl-6-[5-(1-methylcyclopropoxy)-1H-indazol-3-yl]pyridazin-3-one] | ≤ 10 nM | ≤ 5 nM | ≤ 50 nM | ≤ 50 nM | > 10 µM |
| Cn1nc(-c2n[nH]c3ccc(OC4CCC4)cc23)cc(N2CCOCC2)c1=O [Compound 28, 6-[5-(cyclobutoxy)-1H-indazol-3-yl]-2-methyl-4-morpholino-pyridazin-3-one] | ≤ 10 nM | ≤ 5 nM | ≥ 100 nM | ≥ 100 nM |  |
| Cn1nc(-c2n[nH]c3ccc(OC4(C)CC4)cc23)cc(N2CC(C)(C)C3COCC32)c1=O (stereo not drawn) [Compound 48, 4-(3,3-dimethyl-3a,4,6,6a-tetrahydro-2H-furo[3,4-b]pyrrol-1-yl)-2-methyl-6-[5-(1-methylcyclopropoxy)-1H-indazol-3-yl]pyridazin-3-one] | ≤ 10 nM | ≤ 5 nM | ≤ 50 nM | ≤ 50 nM | > 10 µM |
| CC(C)Oc1ccc2[nH]nc(-c3cc(N4CCOCC4)c(=O)n(C)n3)c2c1 [Compound 14, 6-(5-isopropoxy-1H-indazol-3-yl)-2-methyl-4-morpholino-pyridazin-3-one] | ≤ 10 nM | ≤ 5 nM | ≥ 100 nM | ≥ 100 nM | > 10 µM |
| CC1CCN(c2cc(-c3n[nH]c4ccc(OC(C)C)cc34)cnn2)C1 (stereo not drawn) [Compound 3, 5-isopropoxy-3-[6-(3-methylpyrrolidin-1-yl)pyridazin-4-yl]-1H-indazole] | ≤ 10 nM | ≤ 5 nM | ≥ 100 nM | ≥ 100 nM | > 10 µM |
| CC(C)Cn1nc(-c2n[nH]c3ccc(OC(C)C)cc23)cc(N2CCOCC2)c1=O [Compound 18, 2-isobutyl-6-(5-isopropoxy-1H-indazol-3-yl)-4-morpholino-pyridazin-3-one] | ≤ 10 nM | 5 to 10 nM | ≥ 100 nM | ≥ 100 nM |  |
| Cn1nc(-c2n[nH]c3ccc(OC4(C)CC4)cc23)cc(N2CCOCC3(CC3)C2)c1=O [Compound 52, 2-methyl-6-[5-(1-methylcyclopropoxy)-1H-indazol-3-yl]-4-(5-oxa-8-azaspiro[2.6]nonan-8-yl)pyridazin-3-one] | ≤ 10 nM | ≤ 5 nM | ≤ 50 nM | ≤ 50 nM | > 10 µM |
| Cn1nc(-c2n[nH]c3ccc(OC4CC4)cc23)cc(N2CCOCC2)c1=O [Compound 30, 6-[5-(cyclopropoxy)-1H-indazol-3-yl]-2-methyl-4-morpholino-pyridazin-3-one] | ≤ 10 nM | ≤ 5 nM | ≥ 100 nM | ≥ 100 nM |  |

Second part, led by results:

| Ki [2] | Ki [3] | IC50 [4] | IC50 [5] | Compound | CC50 at 3 days [1] |
| --- | --- | --- | --- | --- | --- |
| ≤ 10 nM | 5 to 10 nM | 50 to 100 nM | ≤ 50 nM | CC(C)Oc1ccc2[nH]nc(-c3cc(N4CCOCC4)c(=O)n(C4CCCC4)n3)c2c1 [Compound 16, 2-cyclopentyl-6-(5-isopropoxy-1H-indazol-3-yl)-4-morpholino-pyridazin-3-one] |  |
| ≤ 10 nM | ≤ 5 nM | 50 to 100 nM | ≤ 50 nM | CC(C)Oc1ccc2[nH]nc(-c3cc(N4CCOCC4)c(=O)n(C4CC4)n3)c2c1 [Compound 19, 2-cyclopropyl-6-(5-isopropoxy-1H-indazol-3-yl)-4-morpholino-pyridazin-3-one] |  |
| ≤ 10 nM | ≤ 5 nM | ≤ 50 nM | ≤ 50 nM | C[C@@H]1CN(c2cc(-c3n[nH]c4ccc(OC5(C)CC5)cc34)nn(C3CC3)c2=O)C[C@H](C)O1 [Compound 51, 2-cyclopropyl-4-[(2S,6R)-2,6-dimethylmorpholin-4-yl]-6-[5-(1-methylcyclopropoxy)-1H-indazol-3-yl]pyridazin-3-one] |  |
| ≤ 10 nM | ≤ 5 nM | ≥ 100 nM | 50 to 100 nM | CCn1nc(-c2n[nH]c3ccc(OC(C)C)cc23)cc(N2CCOCC2)c1=O [Compound 23, 2-ethyl-6-(5-isopropoxy-1H-indazol-3-yl)-4-morpholino-pyridazin-3-one] |  |
| ≤ 10 nM | ≤ 5 nM | 50 to 100 nM | ≤ 50 nM | CC(C)Oc1ccc2[nH]nc(-c3cnnc(N4CCOCC4)c3)c2c1 [Compound 4, 4-[5-(5-isopropoxy-1H-indazol-3-yl)pyridazin-3-yl]morpholine] |  |
